Assay results reported in US7807703B2, “Substituted aryl ketones” (Bayer CropScience AG, priority 2002, dated 2010).
Read-outs that look alike come from different tables or passages of the source.

Tests used:
weeds [1] = experiment: Post-emergence test (Example B), herbicidal activity; assay type: in vivo; conditions: test plants of 5-15 cm sprayed, rated after three weeks
Experimental: (§1) • Solvent: 5 parts by weight of acetone • Emulsifier: 1 part by weight of alkylaryl polyglycol ether
(§2) To produce a suitable preparation of active compound, 1 part by weight of active compound is mixed with the stated amount of solvent, the stated amount of emulsifier is added and the concentrate is diluted with water to the desired concentration.
Test plants of a height of 5-15 cm are sprayed with the preparation of active compound such that the particular amounts of active compound desired are applied per unit area. The concentration of the spray liquor is chosen such that the particular amounts of active compound desired are applied in 1000 l of water/ha.
After three weeks, the degree of damage to the plants is rated in % damage in comparison to the development of the untreated control.
The figures denote: • 0%=no effect (like untreated control) • 100%=total destruction

[2] = log P determination by reversed-phase HPLC (EEC Directive 79/831 Annex V.A8; acidic or neutral mobile phase); assay type: physicochemical; conditions: for logP (HPLC, mobile phase not marked) / log P (acidic) / log P / chromatographic logP: reversed-phase C 18, 43° C., HPLC; for chromatographic logP: reversed-phase C18 HPLC column
Outline: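 Reversed-phase C18 HPLC per EEC Directive 79/831 Annex V.A8 at 43° C. Linear gradient of 10% to 90% acetonitrile, run against 0.1% aqueous phosphoric acid for the acidic range (a) or 0.01 molar aqueous phosphate buffer for the neutral range (b).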

weeds [3] = experiment: Pre-emergence test (Example A), herbicidal activity; assay type: in vivo; conditions: soil sprayed 24 hours after sowing, rated after three weeks
Experimental: as §1, §2
Seeds of the test plants are sown in normal soil. After 24 hours, the soil is sprayed with the preparation of active compound such that the particular amount of active compound desired is applied per unit area. The concentration of active compound in the spray liquor is chosen such that the particular amount of active compound desired is applied in 1000 liters of water per hectare.
After three weeks, the degree of damage to the plants is rated in % damage in comparison to the development of the untreated control. The figures denote: • 0%=no effect (like untreated control) • 100%=total destruction

[4] = HPLC reversed-phase C18, 43° C., acidic range: 0.1% aqueous phosphoric acid, acetonitrile gradient (marked a))
[5] = acidic range: 0.1% aqueous phosphoric acid, acetonitrile (marked a) or acidic)
[6] = HPLC, reversed-phase C18, 43° C.; acidic range a): 0.1% aqueous phosphoric acid, acetonitrile, linear gradient 10% to 90% acetonitrile
[7] = mobile phase range not marked, read-out: log P

Row | SMILES | logP [2, 6] | other results
1 | CCn1ncc(C(=O)c2ccc(Cl)c(OCCNS(=O)(=O)c3ccc(C)cc3)c2Cl)c1O [Example 3] | – | activity against weeds (degree of damage) (weeds [1]): strong activity; logP [2, 4]: (I-2) logP = 2.74^a)
2 | CCn1ncc(C(=O)c2ccc(S(C)(=O)=O)c(CN(OC)C(C)C)c2Cl)c1O [Example 344] | – | logP (HPLC, mobile phase not marked) ([2]; mobile phase range not marked): 2.52
3 | CCN(Cc1c(Cl)ccc(C(=O)OC)c1OC)OC [VIII-67] | – | log P (acidic) [2, 5]: logPacidic = 3.43
4 | CCn1ncc(C(=O)c2ccc(Cl)c(OCCNS(=O)(=O)C(F)(F)F)c2Cl)c1O [Example 10] | – | logP [2, 4]: logP = 2.72^a)
5 | CCN(Cc1c(Cl)ccc(C(=O)c2cnn(C)c2O)c1Cl)OC [Example 480] | logP = 2.46^a) | –
6 | CCOC(=O)c1ccc(Cl)c(OCCNS(=O)(=O)c2cccs2)c1Cl [VIII-18] | – | log P ([2]; mobile phase range not marked): logP = 3.20
7 | CCON(C)Cc1c(S(C)(=O)=O)ccc(C(=O)C2C(=O)CCCC2=O)c1Cl [Example 424] | logP = 2.82^a) | –
8 | CN(Cc1c(S(C)(=O)=O)ccc(C(=O)c2cnn(C)c2O)c1Cl)OCC1CCOC1 (stereo not shown) [Example 437] | (I-2) logP = 1.73^a) | –
9 | Cc1c(C(=O)C2C(=O)CCCC2=O)ccc(Cl)c1OCCNS(C)(=O)=O [Example 361] | logP = 2.13^a) | –
10 | COCCON(C)Cc1c(S(C)(=O)=O)ccc(C(=O)OC)c1Cl [VIII-61] | – | log P (acidic) [2, 5]: logPacidic = 2.26
11 | CON(C)Cc1c(S(C)(=O)=O)ccc(C(=O)C2C(=O)CCCC2=O)c1Cl [Example 145] | – | logP [2, 4]: logP = 2.49^a)
12 | CCn1ncc(C(=O)c2ccc(S(C)(=O)=O)c(CN(OC)C(C)C3CC3)c2Cl)c1O (stereo not shown) [Example 373] | (I-2) logP = 2.94^a) | –
13 | CCS(=O)(=O)NCCOc1c(S(C)(=O)=O)ccc(C(=O)OC)c1Cl [VIII-31] | – | log P (acidic) [2, 5]: logPacidic = 1.75
14 | CON(Cc1c(S(C)(=O)=O)ccc(C(=O)C2C(=O)CCCC2=O)c1Cl)C1CCCOC1 (stereo not shown) [Example 411] | (I-2) logP = 2.74^a) | –
15 | COC(=O)c1ccc(S(C)(=O)=O)c(CN(OC)C2CCCC2)c1Cl [VIII-38] | – | log P (acidic) [2, 5]: logPacidic = 3.67
16 | CCn1ncc(C(=O)c2ccc(S(C)(=O)=O)c(CNOC3CCCC3)c2Cl)c1O [Example 422] | (I-2) logP = 2.31^a) | –
17 | CN(Cc1c(S(C)(=O)=O)ccc(C(=O)C2C(=O)CCCC2=O)c1Cl)OCC1CCCCO1 (stereo not shown) [Example 438] | (I-2) logP = 3.04^a) | –
18 | CCN(Cc1c(Cl)ccc(C(=O)C2C(=O)CCC(C)(C)C2=O)c1OC)OC (stereo not shown) [Example 484] | (I-2) logP = 2.30^a) | –
19 | CS(=O)(=O)c1ccc(C(=O)C2C(=O)CCCC2=O)c(Cl)c1CNOC1CCCC1 [Example 401] | (I-2) logP = 3.07^a) | –
20 | CCn1ncc(C(=O)c2ccc(Cl)c(CN(C)S(C)(=O)=O)c2Cl)c1O [Example 456] | logP = 1.72^a) | –
21 | CCON(Cc1c(S(C)(=O)=O)ccc(C(=O)C2C(=O)CCCC2=O)c1Cl)CC1CCOC1 (stereo not shown) [Example 415] | (I-2) logP = 2.84^a) | –

Row | SMILES | logP [2, 6] | other results
22 | CCON(C)Cc1c(S(C)(=O)=O)ccc(C(=O)c2cnn(CC)c2O)c1Cl [Example 413] | logP = 2.09^a) | –
23 | CC(C)ON(C)Cc1c(S(C)(=O)=O)ccc(C(=O)C2C(=O)CCCC2=O)c1Cl [Example 393] | logP = 3.14^a) | –
24 | COC(=O)c1ccc(S(C)(=O)=O)c(CN(Cc2ccccn2)OC)c1Cl [VIII-41] | – | log P (acidic) [2, 5]: logPacidic = 1.17
25 | CCn1ncc(C(=O)c2ccc(Br)c(OCCNS(C)(=O)=O)c2Br)c1O [Example 17] | – | logP [2, 4]: logP = 1.71^a)
26 | CCON(C)Cc1c(S(C)(=O)=O)ccc(C(=O)C2C(=O)CCC(C)(C)C2=O)c1Cl (stereo not shown) [Example 425] | (I-2) logP = 3.65^a) | –
27 | CCn1ncc(C(=O)c2ccc(S(C)(=O)=O)c(CN(C)OCC3CCCCO3)c2Cl)c1O (stereo not shown) [Example 439] | (I-2) logP = 2.35^a) | –
28 | CCN(Cc1c(S(C)(=O)=O)ccc(C(=O)C2C(=O)CCC(C)(C)C2=O)c1Cl)OC (stereo not shown) [Example 405] | (I-2) logP = 3.70^a) | –
29 | CCN(Cc1c(Cl)ccc(C(=O)c2cnn(CC)c2O)c1OC)OC [Example 485] | logP = 2.97^a) | –
30 | CN(Cc1c(S(C)(=O)=O)ccc(C(=O)c2cnn(C)c2O)c1Cl)OCC1CCCCO1 (stereo not shown) [Example 440] | (I-2) logP = 2.01^a) | –
31 | COC(=O)c1ccc(S(C)(=O)=O)c(CN(C)OC2CCCC2)c1Cl [VIII-49] | – | log P (acidic) [2, 5]: logPacidic = 3.48
32 | CCn1ncc(C(=O)c2ccc(S(C)(=O)=O)c(CNOC)c2Cl)c1O [Example 299] | – | logP (HPLC, mobile phase not marked) ([2]; mobile phase range not marked): 1.20
33 | O=C1CCCC(=O)C1C(=O)c1ccc(Cl)c(OCCNS(=O)(=O)c2cccs2)c1Cl [Example 35] | – | logP [2, 4]: (I-2) logP = 2.92^a)
34 | O=C1CCCC(=O)C1C(=O)c1ccc(Cl)c(OCCNS(=O)(=O)C(F)(F)F)c1Cl [Example 9] | – | logP [2, 4]: logP = 3.25^a)
35 | CCON(Cc1c(S(C)(=O)=O)ccc(C(=O)OC)c1Cl)C(C)C [VIII-44] | – | log P (acidic) [2, 5]: logPacidic = 3.52
36 | CCN(Cc1c(Cl)ccc(C(=O)C2C(=O)CCC(C)(C)C2=O)c1OC)S(C)(=O)=O (stereo not shown) [Example 465] | (I-2) logP = 3.21^a) | –
37 | CCn1ncc(C(=O)c2ccc(Cl)c(OCCNS(C)(=O)=O)c2Cl)c1O [Example 6] | – | activity against weeds (degree of damage) (weeds [3]): strong activity; logP [2, 4]: logP = 1.65^a)
38 | CCS(=O)(=O)NCCOc1c(Br)ccc(C(=O)OC)c1C [VIII-29] | – | log P (acidic) [2, 5]: logPacidic = 2.46
39 | CCN(Cc1c(S(C)(=O)=O)ccc(C(=O)c2cnn(CC)c2O)c1Cl)OC [Example 149] | – | logP [2, 4]: logP = 2.16^a)
40 | CCn1ncc(C(=O)c2ccc(Cl)c(CN(C)OC)c2OC)c1O [Example 479] | logP = 2.35^a) | –
41 | CCOC(=O)c1ccc(Cl)c(OCCN)c1Cl [ethyl 3-(2-aminoethoxy)-2,4-dichlorobenzoate] | – | chromatographic logP [2, 7]: 1.08
42 | CCON(Cc1c(S(C)(=O)=O)ccc(C(=O)c2cnn(CC)c2O)c1Cl)C(C)C [Example 392] | logP = 2.89^a) | –

Row | SMILES | logP [2, 6] | other results
43 | COC(=O)c1ccc(S(C)(=O)=O)c(CN(Cc2cccnc2)OC)c1Cl [VIII-42] | – | log P (acidic) [2, 5]: logPacidic = 1.16
44 | COC(=O)c1ccc(S(C)(=O)=O)c(CN(C)OCC2CC2)c1Cl [VIII-33] | – | log P (acidic) [2, 5]: logPacidic = 2.98
45 | COC(=O)c1ccc(S(C)(=O)=O)c(CN(OC)C(C)C)c1Cl [VIII-3] | – | chromatographic logP ([2]; acidic range: 0.1% aqueous phosphoric acid, acetonitrile (marked a) or acidic), read-out: log P (acidic)): 3.13
46 | COC(=O)c1ccc(S(C)(=O)=O)c(CN(C)OCC2CCCCO2)c1Cl (stereo not shown) [VIII-65] | – | log P (acidic) [2, 5]: logPacidic = 2.87
47 | CCN(Cc1c(Cl)ccc(C(=O)OC)c1OC)S(C)(=O)=O [VIII-71] | – | log P (acidic) [2, 5]: logPacidic = 2.38
48 | CN(Cc1c(S(C)(=O)=O)ccc(C(=O)C2C(=O)CCCC2=O)c1Cl)OC1CCCC1 [Example 398] | (I-2) logP = 3.69^a) | –
49 | COC(=O)c1ccc(S(C)(=O)=O)c(CN(C)OC)c1Cl [VIII-22] | – | log P (acidic) [2, 5]: logPacidic = 2.31
50 | COC(=O)c1ccc(Cl)c(CN(C)OC)c1Cl [VIII-1, methyl 2,4-dichloro-3-(N-methoxy-N-methylaminomethyl)benzoate] | – | chromatographic logP [2, 7]: 3.08
51 | CS(=O)(=O)NCCOc1c(Cl)ccc(C(=O)O)c1Cl [II-2, 2,4-dichloro-3-(2-methylsulphonylaminoethoxy)benzoic acid] | – | chromatographic logP [2, 7]: 1.36
52 | CCONCc1c(Cl)ccc(C(=O)c2cnn(C)c2O)c1Cl [Example 450] | logP = 1.67^a) | –
53 | CCn1ncc(C(=O)c2ccc(S(C)(=O)=O)c(CN(C)OC(C)C)c2Cl)c1O [Example 395] | logP = 2.33^a) | –
54 | Cn1ncc(C(=O)c2ccc(Cl)c(OCCNS(C)(=O)=O)c2Cl)c1O [Example 353] | logP = 1.36^a) | –
55 | CONCc1c(S(C)(=O)=O)ccc(C(=O)OC)c1Cl [VIII-10] | – | log P ([2]; mobile phase range not marked): logP = 1.69
56 | CCN(Cc1c(S(C)(=O)=O)ccc(C(=O)OC)c1Cl)S(C)(=O)=O [VIII-72] | – | log P (acidic) [2, 5]: logPacidic = 1.88
57 | CCN(CC)C(=O)CN(Cc1c(S(C)(=O)=O)ccc(C(=O)c2cnn(CC)c2O)c1Cl)OC [Example 389] | (I-2) logP = 1.85^a) | –
58 | CC(C)ON(Cc1c(S(C)(=O)=O)ccc(C(=O)C2C(=O)CCCC2=O)c1Cl)C(C)C [Example 420] | logP = 3.99^a) | –
59 | CCn1ncc(C(=O)c2ccc(S(C)(=O)=O)c(CN(Cc3ccoc3)OC)c2Cl)c1O [Example 441] | (I-2) logP = 2.39^a) | –
60 | CN(Cc1c(Cl)ccc(C(=O)C2C(=O)CCC(C)(C)C2=O)c1Cl)S(C)(=O)=O (stereo not shown) [Example 459] | (I-2) logP = 3.01^a) | –
61 | CCN(Cc1c(S(C)(=O)=O)ccc(C(=O)c2cnn(CC)c2O)c1Cl)S(C)(=O)=O [Example 468] | logP = 1.48^a) | –
62 | COc1c(C(=O)C2C(=O)CCCC2=O)ccc(Cl)c1CN(C)OC [Example 477] | logP = 2.63^a) | –
